Data from article PMC13110849 (ACS chemical neuroscience, 2023).

Biological target: RhoA•GMPPNP binding to ROCK1 (Homo sapiens, UniProt P61586)
Test: AlphaScreen assay of RhoA•GMPPNP binding to ROCK1
Conditions: varying concentration, 24 h, 4 °C

RhoA•GMPPNP binding to ROCK1, sequence (P61586 whole entry): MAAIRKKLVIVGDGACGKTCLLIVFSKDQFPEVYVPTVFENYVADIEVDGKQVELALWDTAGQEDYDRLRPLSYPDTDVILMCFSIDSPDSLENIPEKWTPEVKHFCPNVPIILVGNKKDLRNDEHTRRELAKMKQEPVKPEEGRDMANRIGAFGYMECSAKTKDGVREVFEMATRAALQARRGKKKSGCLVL

Nc1nc2c(ncn2[C@@H]2O[C@H](COP(=O)(O)OP(=O)(O)O)[C@@H](O)[C@H]2O)c(=O)[nH]1 [GDP]
Inhibition of RhoA•GMPPNP binding to ROCK1: successfully inhibited
